In article PMC8632988, “Inhibition of SYK and cSrc kinases can protect bone and cartilage in preclinical models of osteoarthritis and rheumatoid arthritis” (Scientific Reports, 2021):

Experiments:
CDK16/cyclin Y = biological target: T1, CDK16/cyclin Y (Homo sapiens, UniProt Q00536); experiment: Kinase selectivity profile assay; format: biochemical; details: 500 nM; relative to DMSO; read-out: Residual enzymatic activity
T1 construct: purchased Reaction Biology Corporation
Outline: (§1)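 Radiometric kinase assay run by a standard protocol. Unbound phosphate was removed by washing filters in phosphoric acid, and product radioactivity gave percent remaining kinase activity versus DMSO vehicle reactions. Run in duplicate.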

BMPR2 = biological target: T2, BMPR2 (Homo sapiens, UniProt Q13873); experiment: Kinase selectivity profile assay; format: biochemical; details: 500 nM; relative to DMSO; read-out: Residual enzymatic activity
T2 construct: purchased Reaction Biology Corporation
Outline: as §1

IRAK1 = biological target: T3, IRAK1 (Homo sapiens, UniProt P51617); experiment: Kinase selectivity profile assay; format: biochemical; details: 500 nM; relative to DMSO; read-out: Residual enzymatic activity
T3 construct: purchased Reaction Biology Corporation
Outline: as §1

c-MET = biological target: T4, c-MET (Homo sapiens, UniProt P08581); experiment: Kinase selectivity profile assay; format: biochemical; details: 500 nM; relative to DMSO; read-out: Residual enzymatic activity
T4 construct: purchased Reaction Biology Corporation
Outline: as §1

P38d/MAPK13 = biological target: T5, P38d/MAPK13 (Homo sapiens, UniProt O15264); experiment: Kinase selectivity profile assay; format: biochemical; details: 500 nM; relative to DMSO; read-out: Residual enzymatic activity
T5 construct: purchased Reaction Biology Corporation
Outline: as §1

TAOK2/TAO1 = biological target: T6, TAOK2/TAO1 (Homo sapiens, UniProt Q9UL54); experiment: Kinase selectivity profile assay; format: biochemical; details: 500 nM; relative to DMSO; read-out: Residual enzymatic activity
T6 construct: purchased Reaction Biology Corporation
Outline: as §1

ERBB2/HER2 = biological target: T7, ERBB2/HER2 (Homo sapiens, UniProt P04626); experiment: Kinase selectivity profile assay; format: biochemical; details: 500 nM; relative to DMSO; read-out: Residual enzymatic activity
T7 construct: purchased Reaction Biology Corporation
Outline: as §1

MLK1/MAP3K9 = biological target: T8, MLK1/MAP3K9 (Homo sapiens, UniProt P80192); experiment: Kinase selectivity profile assay; format: biochemical; details: for remaining activity at 0.5 µM: 500 nM, relative to DMSO, read-out: Residual enzymatic activity
T8 construct: purchased Reaction Biology Corporation (assay service)
T8 sequence (P80192 whole entry): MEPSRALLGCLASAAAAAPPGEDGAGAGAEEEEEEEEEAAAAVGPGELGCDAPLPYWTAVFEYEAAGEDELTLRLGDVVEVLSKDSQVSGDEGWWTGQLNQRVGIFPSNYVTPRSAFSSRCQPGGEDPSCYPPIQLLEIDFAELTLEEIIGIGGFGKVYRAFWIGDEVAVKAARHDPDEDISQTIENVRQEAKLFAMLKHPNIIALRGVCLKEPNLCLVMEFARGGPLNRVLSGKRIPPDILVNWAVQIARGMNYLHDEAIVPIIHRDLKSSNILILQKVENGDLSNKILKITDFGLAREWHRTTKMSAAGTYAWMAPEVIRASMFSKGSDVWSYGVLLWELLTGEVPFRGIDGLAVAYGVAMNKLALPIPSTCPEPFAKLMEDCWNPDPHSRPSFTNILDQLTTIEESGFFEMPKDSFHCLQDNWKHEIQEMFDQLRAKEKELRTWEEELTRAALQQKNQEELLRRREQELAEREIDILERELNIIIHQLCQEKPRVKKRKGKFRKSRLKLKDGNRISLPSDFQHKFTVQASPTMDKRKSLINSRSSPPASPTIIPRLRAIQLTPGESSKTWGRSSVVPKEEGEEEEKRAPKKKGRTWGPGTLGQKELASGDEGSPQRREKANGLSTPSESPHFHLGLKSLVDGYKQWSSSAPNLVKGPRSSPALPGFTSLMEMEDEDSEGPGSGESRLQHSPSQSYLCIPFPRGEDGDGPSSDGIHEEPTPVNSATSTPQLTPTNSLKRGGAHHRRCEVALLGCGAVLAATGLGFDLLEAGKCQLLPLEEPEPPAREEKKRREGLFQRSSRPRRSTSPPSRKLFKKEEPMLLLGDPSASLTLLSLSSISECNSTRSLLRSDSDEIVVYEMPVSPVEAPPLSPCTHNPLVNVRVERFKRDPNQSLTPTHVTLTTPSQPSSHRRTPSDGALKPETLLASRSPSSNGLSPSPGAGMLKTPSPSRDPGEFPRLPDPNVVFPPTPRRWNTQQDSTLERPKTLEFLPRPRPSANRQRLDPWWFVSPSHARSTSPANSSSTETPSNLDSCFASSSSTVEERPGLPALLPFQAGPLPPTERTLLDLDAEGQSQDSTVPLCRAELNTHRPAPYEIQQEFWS
Outline: as §1

c-Kit = biological target: T9, c-Kit (Homo sapiens, UniProt P10721); experiment: Kinase selectivity profile assay; format: biochemical; details: 500 nM, relative to DMSO; for remaining activity at 0.5 µM: read-out: Residual enzymatic activity
T9 construct: purchased Reaction Biology Corporation
T9 sequence (P10721 26-976): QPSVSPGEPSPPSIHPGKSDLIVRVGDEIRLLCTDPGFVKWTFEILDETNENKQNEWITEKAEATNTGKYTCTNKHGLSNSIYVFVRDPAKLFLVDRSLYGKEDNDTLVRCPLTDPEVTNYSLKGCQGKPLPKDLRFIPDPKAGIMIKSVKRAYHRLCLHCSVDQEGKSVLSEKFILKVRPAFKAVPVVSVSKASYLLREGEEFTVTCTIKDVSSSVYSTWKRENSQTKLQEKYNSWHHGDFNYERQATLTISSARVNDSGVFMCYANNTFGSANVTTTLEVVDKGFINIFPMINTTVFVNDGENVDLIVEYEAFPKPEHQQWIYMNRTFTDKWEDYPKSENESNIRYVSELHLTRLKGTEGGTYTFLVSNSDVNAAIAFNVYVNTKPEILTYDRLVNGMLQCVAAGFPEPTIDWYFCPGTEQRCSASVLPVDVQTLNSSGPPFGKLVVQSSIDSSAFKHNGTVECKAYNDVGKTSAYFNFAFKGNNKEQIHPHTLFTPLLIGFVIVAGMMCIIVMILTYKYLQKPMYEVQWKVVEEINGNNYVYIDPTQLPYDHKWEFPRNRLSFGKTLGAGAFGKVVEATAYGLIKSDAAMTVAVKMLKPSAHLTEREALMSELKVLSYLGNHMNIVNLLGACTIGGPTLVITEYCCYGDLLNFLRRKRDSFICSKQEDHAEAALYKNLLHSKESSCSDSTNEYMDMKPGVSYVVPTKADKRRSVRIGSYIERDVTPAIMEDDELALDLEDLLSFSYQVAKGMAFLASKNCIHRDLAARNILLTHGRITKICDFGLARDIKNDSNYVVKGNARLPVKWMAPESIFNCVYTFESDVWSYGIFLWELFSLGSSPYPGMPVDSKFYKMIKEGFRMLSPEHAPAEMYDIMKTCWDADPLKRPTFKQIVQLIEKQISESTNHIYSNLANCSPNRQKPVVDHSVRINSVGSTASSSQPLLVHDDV
Outline: as §1

MEKK1 = biological target: T10, MEKK1 (Homo sapiens, UniProt Q13233); experiment: Kinase selectivity profile assay; format: biochemical; details: 500 nM; relative to DMSO; read-out: Residual enzymatic activity
T10 construct: purchased Reaction Biology Corporation
Outline: as §1

MSK1/RPS6KA5 = biological target: T11, MSK1/RPS6KA5 (Homo sapiens, UniProt O75582); experiment: Kinase selectivity profile assay; format: biochemical; details: 500 nM; relative to DMSO; read-out: Residual enzymatic activity
T11 construct: purchased Reaction Biology Corporation
T11 sequence (O75582 whole entry): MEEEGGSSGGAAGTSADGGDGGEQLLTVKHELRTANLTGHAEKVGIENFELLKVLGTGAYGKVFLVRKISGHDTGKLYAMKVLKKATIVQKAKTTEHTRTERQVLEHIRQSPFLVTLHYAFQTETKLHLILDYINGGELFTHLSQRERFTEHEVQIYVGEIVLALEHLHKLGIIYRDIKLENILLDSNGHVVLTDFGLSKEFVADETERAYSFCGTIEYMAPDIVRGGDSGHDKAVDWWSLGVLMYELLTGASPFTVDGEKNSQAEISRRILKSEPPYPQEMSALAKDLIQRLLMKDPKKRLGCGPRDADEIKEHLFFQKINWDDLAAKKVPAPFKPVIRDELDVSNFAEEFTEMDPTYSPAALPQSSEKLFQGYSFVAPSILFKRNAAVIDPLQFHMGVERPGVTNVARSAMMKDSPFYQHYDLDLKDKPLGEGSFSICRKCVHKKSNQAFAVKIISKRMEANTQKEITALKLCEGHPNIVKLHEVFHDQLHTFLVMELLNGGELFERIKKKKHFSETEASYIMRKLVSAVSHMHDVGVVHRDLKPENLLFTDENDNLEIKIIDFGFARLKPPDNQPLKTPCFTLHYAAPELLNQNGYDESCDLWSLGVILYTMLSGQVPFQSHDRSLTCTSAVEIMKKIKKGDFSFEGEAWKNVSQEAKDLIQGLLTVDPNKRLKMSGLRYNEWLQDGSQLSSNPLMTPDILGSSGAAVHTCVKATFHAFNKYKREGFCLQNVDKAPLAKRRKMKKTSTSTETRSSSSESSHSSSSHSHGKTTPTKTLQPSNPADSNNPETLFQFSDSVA
Outline: as §1

PHKg2 = biological target: T12, PHKg2 (Homo sapiens, UniProt P15735); experiment: Kinase selectivity profile assay; format: biochemical; details: 500 nM; relative to DMSO; read-out: Residual enzymatic activity
T12 construct: purchased Reaction Biology Corporation
Outline: as §1

FGFR4 = biological target: T13, FGFR4 (Homo sapiens, UniProt P22455); experiment: Kinase selectivity profile assay; format: biochemical; details: 500 nM, relative to DMSO
T13 construct: purchased Reaction Biology Corporation
Outline: as §1

CK1a1 = biological target: T14, CK1a1 (Homo sapiens, UniProt P48729); experiment: Kinase selectivity profile assay; format: biochemical; details: 500 nM; relative to DMSO; read-out: Residual enzymatic activity
T14 construct: purchased Reaction Biology Corporation
Outline: as §1

TRKA = biological target: T15, TRKA (Homo sapiens, UniProt P04629); experiment: Kinase selectivity profile assay; format: biochemical; details: 500 nM; relative to DMSO; read-out: Residual enzymatic activity
T15 construct: purchased Reaction Biology Corporation
Outline: as §1

GRK6 = biological target: T16, GRK6 (Homo sapiens, UniProt P43250); experiment: Kinase selectivity profile assay; format: biochemical; details: 500 nM; relative to DMSO; read-out: Residual enzymatic activity
T16 construct: purchased Reaction Biology Corporation
Outline: as §1

SGK1 = biological target: T17, SGK1 (Homo sapiens, UniProt O00141); experiment: Kinase selectivity profile assay; format: biochemical; details: 500 nM; relative to DMSO; read-out: Residual enzymatic activity
T17 construct: purchased Reaction Biology Corporation
T17 sequence (O00141 whole entry): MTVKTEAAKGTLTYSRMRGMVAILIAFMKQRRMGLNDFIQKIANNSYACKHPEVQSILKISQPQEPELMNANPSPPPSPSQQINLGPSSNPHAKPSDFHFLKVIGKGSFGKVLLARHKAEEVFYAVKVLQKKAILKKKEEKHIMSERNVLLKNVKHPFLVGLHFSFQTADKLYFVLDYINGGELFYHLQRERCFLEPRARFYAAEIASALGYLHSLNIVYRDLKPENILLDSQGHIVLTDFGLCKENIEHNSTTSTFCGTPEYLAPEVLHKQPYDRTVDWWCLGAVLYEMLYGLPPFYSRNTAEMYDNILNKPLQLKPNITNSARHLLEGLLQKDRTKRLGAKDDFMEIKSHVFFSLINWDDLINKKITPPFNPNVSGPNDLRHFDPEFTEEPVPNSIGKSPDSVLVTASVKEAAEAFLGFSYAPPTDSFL
Outline: as §1

SIK3 = biological target: T18, SIK3 (Homo sapiens, UniProt Q9Y2K2); experiment: Kinase selectivity profile assay; format: biochemical; details: 500 nM; relative to DMSO; read-out: Residual enzymatic activity
T18 construct: purchased Reaction Biology Corporation
Outline: as §1

PASK = biological target: T19, PASK (Homo sapiens, UniProt Q96RG2); experiment: Kinase selectivity profile assay; format: biochemical; details: 500 nM; relative to DMSO; read-out: Residual enzymatic activity
T19 construct: purchased Reaction Biology Corporation
Outline: as §1

GRK2 = biological target: T20, GRK2 (Homo sapiens, UniProt P25098); experiment: Kinase selectivity profile assay; format: biochemical; details: 500 nM; relative to DMSO; read-out: Residual enzymatic activity
T20 construct: purchased Reaction Biology Corporation
T20 sequence (P25098 whole entry): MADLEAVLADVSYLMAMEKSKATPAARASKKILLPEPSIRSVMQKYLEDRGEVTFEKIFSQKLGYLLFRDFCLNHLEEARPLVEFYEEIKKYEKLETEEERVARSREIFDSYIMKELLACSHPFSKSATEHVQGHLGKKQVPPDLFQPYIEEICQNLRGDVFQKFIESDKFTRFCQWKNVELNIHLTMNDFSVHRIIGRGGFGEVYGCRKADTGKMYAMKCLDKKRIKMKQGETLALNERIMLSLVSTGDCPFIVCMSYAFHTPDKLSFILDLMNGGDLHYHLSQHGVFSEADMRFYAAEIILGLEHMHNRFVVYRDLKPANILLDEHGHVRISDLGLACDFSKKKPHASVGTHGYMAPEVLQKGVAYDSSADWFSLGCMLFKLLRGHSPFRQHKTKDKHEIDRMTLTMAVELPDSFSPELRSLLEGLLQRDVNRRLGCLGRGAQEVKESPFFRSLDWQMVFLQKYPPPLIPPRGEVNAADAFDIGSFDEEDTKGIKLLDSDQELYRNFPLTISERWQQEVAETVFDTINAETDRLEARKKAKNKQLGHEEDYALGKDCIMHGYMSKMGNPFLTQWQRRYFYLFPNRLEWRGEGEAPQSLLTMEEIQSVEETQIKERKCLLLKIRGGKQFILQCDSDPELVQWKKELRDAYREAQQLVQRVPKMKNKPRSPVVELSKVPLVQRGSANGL
Outline: as §1

ALK1/ACVRL1 = biological target: T21, ALK1/ACVRL1 (Homo sapiens, UniProt P37023); experiment: Kinase selectivity profile assay; format: biochemical; details: 500 nM; relative to DMSO; read-out: Residual enzymatic activity
T21 construct: purchased Reaction Biology Corporation
Outline: as §1

PKN1/PRK1 = biological target: T22, PKN1/PRK1 (Homo sapiens, UniProt Q16512); experiment: Kinase selectivity profile assay; format: biochemical; details: 500 nM; relative to DMSO; read-out: Residual enzymatic activity
T22 construct: purchased Reaction Biology Corporation
Outline: as §1

TBK1 = biological target: T23, TBK1 (Homo sapiens, UniProt Q9UHD2); experiment: Kinase selectivity profile assay; format: biochemical; details: 500 nM; relative to DMSO; read-out: Residual enzymatic activity
T23 construct: purchased Reaction Biology Corporation
Outline: as §1

JAK1 = biological target: T24, JAK1 (Homo sapiens, UniProt P23458); experiment: Kinase selectivity profile assay; format: biochemical; details: 500 nM; relative to DMSO; read-out: Residual enzymatic activity
T24 construct: purchased Reaction Biology Corporation
Outline: as §1

LATS1 = biological target: T25, LATS1 (Homo sapiens, UniProt O95835); experiment: Kinase selectivity profile assay; format: biochemical; details: 500 nM; relative to DMSO; read-out: Residual enzymatic activity
T25 construct: purchased Reaction Biology Corporation
Outline: as §1

GSK3b = biological target: T26, GSK3b (Homo sapiens, UniProt P49841); experiment: Kinase selectivity profile assay; format: biochemical; details: 500 nM; relative to DMSO; read-out: Residual enzymatic activity
T26 construct: purchased Reaction Biology Corporation
T26 sequence (P49841 whole entry): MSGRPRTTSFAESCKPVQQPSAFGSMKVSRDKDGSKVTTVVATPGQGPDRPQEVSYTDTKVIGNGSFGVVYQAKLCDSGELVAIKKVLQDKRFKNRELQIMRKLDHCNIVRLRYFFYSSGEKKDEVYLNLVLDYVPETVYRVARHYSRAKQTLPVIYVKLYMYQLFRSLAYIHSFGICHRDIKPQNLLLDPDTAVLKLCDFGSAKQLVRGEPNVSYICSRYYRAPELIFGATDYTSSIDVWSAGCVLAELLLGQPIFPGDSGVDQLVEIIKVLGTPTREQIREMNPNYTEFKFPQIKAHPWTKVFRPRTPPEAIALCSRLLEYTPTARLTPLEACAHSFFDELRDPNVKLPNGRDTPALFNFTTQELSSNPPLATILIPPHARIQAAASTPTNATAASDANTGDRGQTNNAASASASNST
Outline: as §1

IGF1R = biological target: T27, IGF1R (Homo sapiens, UniProt P08069); experiment: Kinase selectivity profile assay; format: biochemical; details: 500 nM; relative to DMSO; read-out: Residual enzymatic activity
T27 construct: purchased Reaction Biology Corporation
Outline: as §1

YES/YES1 = biological target: T28, YES/YES1 (Homo sapiens, UniProt P07947); experiment: Kinase selectivity profile assay; format: biochemical; details: for remaining activity at 0.5 µM: 500 nM, relative to DMSO, read-out: Residual enzymatic activity
T28 construct: purchased Reaction Biology Corporation (Malvern, PA, USA)
T28 sequence (P07947 whole entry): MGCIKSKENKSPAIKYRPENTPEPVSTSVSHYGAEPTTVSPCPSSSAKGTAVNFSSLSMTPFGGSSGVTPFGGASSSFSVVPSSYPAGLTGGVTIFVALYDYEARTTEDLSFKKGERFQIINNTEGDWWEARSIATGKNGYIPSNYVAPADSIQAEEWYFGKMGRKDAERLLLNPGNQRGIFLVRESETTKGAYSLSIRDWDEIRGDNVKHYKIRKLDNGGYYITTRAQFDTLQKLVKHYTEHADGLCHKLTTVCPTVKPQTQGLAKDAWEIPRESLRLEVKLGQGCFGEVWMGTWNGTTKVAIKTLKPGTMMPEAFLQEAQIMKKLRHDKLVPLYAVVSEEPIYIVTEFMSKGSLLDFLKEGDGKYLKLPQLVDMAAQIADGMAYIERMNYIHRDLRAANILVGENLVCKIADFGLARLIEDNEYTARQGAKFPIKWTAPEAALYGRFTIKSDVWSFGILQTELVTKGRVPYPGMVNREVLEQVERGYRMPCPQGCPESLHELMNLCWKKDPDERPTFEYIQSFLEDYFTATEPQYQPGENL
Outline: as §1

BRSK1 = biological target: T29, BRSK1 (Homo sapiens, UniProt Q8TDC3); experiment: Kinase selectivity profile assay; format: biochemical; details: 500 nM; relative to DMSO; read-out: Residual enzymatic activity
T29 construct: purchased Reaction Biology Corporation
Outline: as §1

MYO3b = biological target: T30, MYO3b (Homo sapiens, UniProt Q8WXR4); experiment: Kinase selectivity profile assay; format: biochemical; details: 500 nM; relative to DMSO; read-out: Residual enzymatic activity
T30 construct: purchased Reaction Biology Corporation
Outline: as §1

THP-1 cells = experiment: Inhibition of TNF-α secretion by activated monocytes; format: cell-based; details: Homo sapiens, differentiated monocytes, IgG-coated plates, read-out: IC50, inhibition of TNF-α release
Experimental: The assay was performed at A. N. Bakh Institute of Biochemistry, Russia. Human leukemia monocytic THP-1 cells obtained from Russian collection cell cultures (RCCC) were cultured in 5% CO2 humidified atmosphere at 37 °C in RPMI 1640 supplemented with 100 U mL^–1 penicillin/streptomycin, 2% FBS and 20 μM β-mercaptoethanol. THP-1 cells were incubated in 5% CO2 atmosphere at 37 °C in RPMI 1640 medium. To induce differentiation the cells were treated with IFN-g for six days. 96-well culture plate coated with combined human IgG were incubated during night at 4 °C (or for 1 h at 37 °C). To evaluate baseline cell simulation F(ab’)2 was used as a negative control in part of wells. Unbounded antibodies were removed with sodium-phosphate buffer. A solution of test compound (MT-SYK-03 or) and differentiated cells in cultivating medium were added in each well. […] Each concentration was tested in triplicate; the experiment was replicated twice. For dose–response curve see Fig. S3.

[1] = 10-dose mode, threefold serial dilution from 10 μM

| SMILES | remaining activity at 0.5 µM (CDK16/cyclin Y) | remaining activity at 0.5 µM (BMPR2) | remaining activity at 0.5 µM (IRAK1) | remaining activity at 0.5 µM (c-MET) | remaining activity at 0.5 µM (P38d/MAPK13) | remaining activity at 0.5 µM (TAOK2/TAO1) | remaining activity at 0.5 µM (ERBB2/HER2) | remaining activity at 0.5 µM (MLK1/MAP3K9) | remaining activity at 0.5 µM (c-Kit) | remaining activity at 0.5 µM (MEKK1) | remaining activity at 0.5 µM (MSK1/RPS6KA5) | remaining activity at 0.5 µM (PHKg2) | remaining activity at 0.5 µM (CK1a1) | remaining activity at 0.5 µM (TRKA) | remaining activity at 0.5 µM (GRK6) | remaining activity at 0.5 µM (SGK1) | remaining activity at 0.5 µM (SIK3) | remaining activity at 0.5 µM (PASK) | remaining activity at 0.5 µM (GRK2) | remaining activity at 0.5 µM (ALK1/ACVRL1) | further results |
| --- | --- | --- | --- | --- | --- | --- | --- | --- | --- | --- | --- | --- | --- | --- | --- | --- | --- | --- | --- | --- | --- |
| COc1cc(Nc2ncc(F)c(Nc3ccc4c(n3)NC(=O)C(C)(C)O4)n2)cc(OC)c1OC [R406, reference compound] | 63.3% | 71.1% | 13.5% | 71.4% | 84.7% | 47.4% | 80.5% | 6.3% | 37.1% | 100% | 97.3% | 93.4% | 95.5% | 25.7% | 92.7% | 109% | 75.4% | 106% | 97.2% | 100% | remaining activity at 0.5 µM (FGFR4; read-out: Residual enzymatic activity): 58%; remaining activity at 0.5 µM (PKN1/PRK1): 62.6%; remaining activity at 0.5 µM (TBK1): 13.9%; remaining activity at 0.5 µM (JAK1): 0%; remaining activity at 0.5 µM (LATS1): 79.6%; remaining activity at 0.5 µM (GSK3b): 37.9%; remaining activity at 0.5 µM (IGF1R): 60.3%; remaining activity at 0.5 µM (YES/YES1): 10.1%; remaining activity at 0.5 µM (BRSK1): 61.6%; remaining activity at 0.5 µM (MYO3b): 94.1% |
| COc1cc(Nc2ncnc(Nc3cc4c(cn3)NC(=O)C(C)(C)O4)n2)cc(OC)c1OC [MT-SYK-03] | 95.8% | 90% | 74.6% | 108% | 119% | 105% | 82.2% | 21.5% | > 54% | 105% | 106% | 102% | 101% | 82.5% | 100% | 108% | 83.4% | 102% | 101% | 126% | IC50 (THP-1 cells): 480 nM; IC50 (MLK1/MAP3K9; [1]): 7.8 nM; Residual enzymatic activity (c-Kit): 69.2%; Residual enzymatic activity (FGFR4): 95.7%; remaining activity at 0.5 µM (PKN1/PRK1): 104%; remaining activity at 0.5 µM (TBK1): 66.8%; remaining activity at 0.5 µM (JAK1): 63.4%; remaining activity at 0.5 µM (LATS1): 99.4%; remaining activity at 0.5 µM (GSK3b): 82.4%; remaining activity at 0.5 µM (IGF1R): 90%; remaining activity at 0.5 µM (YES/YES1): 11.6%; IC50 (YES/YES1; [1]): 3.5 nM; inhibition at 0.5 µM (YES/YES1; read-out: Inhibition at 500 nM): > 90%; remaining activity at 0.5 µM (BRSK1): 92.6%; remaining activity at 0.5 µM (MYO3b): 95.4% |
